Reference: PMC8191784 (2021)

Assays:
[1] = tested on: L2 mutant aptamer, SHAPE transcript (RNA, riboswitch) GCGCUUCAUAUAAUCCUAAUGAAUUCCUUUGGGAGUUUCUACCAAGAGCCUUAAACUCUUGAUUAUGAAGUAAUUUAUCGUCACGGUGCAUCUACCAUC; test: SHAPE (NMIA) probing; conditions: NaCl, 0-10 mM MgCl2; K-HEPES pH 8.0, 37 °C; 2 mM DAP
[2] = tested on: L2 mutant, vector J2/3-P1 (core-P1) (RNA, riboswitch, 5-aminoallyl-U at residue 42 (aptamer numbering) and at a P1 site (position not visible)) GCGCGAGCGUUGUAUAAUCCUAAUGAAUUCCUUUGGGAGUUUCUACCAAGAGCCUUAAACUCUUGAUUACAACGCUCGCGC; test: smFRET; conditions: 10 mM NaCl, 10 mM MgCl2; 10 mM Tris-HCl pH 8.0; 1 mM DAP
[3] = tested on: L2 mutant, vector P1-P2 (RNA, riboswitch, 5-aminoallyl-U at the two dye sites (underlined positions not given)) GCGCGAGCGUUGUAUAAUCCUAAUGAAUUCCUUUGGGAGUUUCUACCAAGAGCCUUAAACUCUUGAUUACAAUGCUCGCGC; test: smFRET; conditions: 10 mM NaCl, 10 mM MgCl2; 10 mM Tris-HCl pH 8.0; 1 mM DAP
[4] = tested on: wild-type add aptamer, vector P1-P2 (RNA, riboswitch, 5-aminoallyl-U at the two dye sites (underlined positions not given)) GCGCGAGCGUUGUAUAAUCCUAAUGAUAUGGUUUGGGAGUUUCUACCAAGAGCCUUAAACUCUUGAUUACAAUGCUCGCGC; test: smFRET; conditions: 10 mM NaCl, 10 mM MgCl2; 10 mM Tris-HCl pH 8.0; 1 mM DAP
[5] = tested on: L2 mutant, vector P1-P3 (RNA, riboswitch, 5-aminoallyl-U at the two dye sites (underlined positions not given)) GCGCGAGCGUUGUAUAAUCCUAAUGAAUUCCUUUGGGAGUUUCUACCAAGAGCCUUAAACUCUUGAUUACAACGCUCGCGC; test: smFRET; conditions: 10 mM NaCl, 10 mM MgCl2; 10 mM Tris-HCl pH 8.0; 1 mM DAP
[6] = tested on: wild-type add aptamer, SHAPE transcript (RNA, riboswitch) GCGCUUCAUAUAAUCCUAAUGAUAUGGUUUGGGAGUUUCUACCAAGAGCCUUAAACUCUUGAUUAUGAAGUAAUUUAUCGUCACGGUGCAUCUACCAUC; test: SHAPE (NMIA) probing; conditions: NaCl, 0-10 mM MgCl2; K-HEPES pH 8.0, 37 °C; 2 mM DAP
[7] = tested on: wild-type add aptamer, vector P2-P3 (L2-L3) (RNA, riboswitch, 5-aminoallyl-U at the two dye sites (underlined positions not given)) GCGCGAGCGUUGUAUAAUCCUAAUGAUAUGGUUUGGGAGUUUCUACCAAGAGCCUUAAACUCUUGAUUACAACGCUCGCGC; test: smFRET
[8] = tested on: wild-type add aptamer, vector J2/3-P1 (core-P1) (RNA, riboswitch, 5-aminoallyl-U at residue 42 (aptamer numbering) and at a P1 site (position not visible)) GCGCGAGCGUUGUAUAAUCCUAAUGAUAUGGUUUGGGAGUUUCUACCAAGAGCCUUAAACUCUUGAUUACAACGCUCGCGC; test: smFRET; conditions: 10 mM NaCl, 10 mM MgCl2; 10 mM Tris-HCl pH 8.0; 1 mM DAP
[9] = tested on: L2 mutant (U28A, A29U, G31C, G32C), vector P2-P3 (L2-L3) (RNA, riboswitch, 5-aminoallyl-U at the two dye sites (underlined positions not given)) GCGCGAGCGUUGUAUAAUCCUAAUGAAUUCCUUUGGGAGUUUCUACCAAGAGCCUUAAACUCUUGAUUACAACGCUCGCGC; test: smFRET; conditions: 10 mM Tris-HCl pH 8.0
[10] = tested on: L3 mutant, vector P2-P3 (L2-L3) (RNA, riboswitch, 5-aminoallyl-U at the two dye sites (underlined positions not given)) GCGCGAGCGUUGUAUAAUCCUAAUGAUAUGGUUUGGGAGUUUCUACCAAGAGGGUAUAACUCUUGAUUACAACGCUCGCGC; test: smFRET; conditions: Na+, Mg2+ (see Figure S3); 10 mM Tris-HCl pH 8.0

Structure (SMILES) | binding [1] | binding [2] | binding [3] | binding [4] | binding [5] | binding [6] | binding ([7]; 10 mM NaCl, 10 mM MgCl2, 10 mM Tris-HCl pH 8.0, 1 mM DAP, FRET same as Mg2+ alone) | binding [8] | binding ([9]; 10 mM Na+, no Mg2+, aptamer stays in U state without Mg2+) | binding ([9]; 10 mM NaCl, 10 mM MgCl2, 1 mM DAP) | binding [10] | binding ([7]; 200 mM NaCl, 3 M urea, adenine titration) | binding ([9]; Na+, Mg2+ (see Figure S2), adenine concentration varied)
Nc1nc(N)c2[nH]cnc2n1 | yes | yes | yes | yes | yes | yes | yes | yes | no | yes | yes | – | –
Nc1ncnc2[nH]cnc12 | – | – | – | – | – | – | – | – | – | – | – | yes | yes
